Structures can show the parent of a compound that is named as a salt. Where two headings read alike, the source gives them in different places.
Columns and labels:
[1] = test system: uptake of ^3 H noradrenalin by the synaptosomes of a rat hypothalamus homogenate; assay: inhibition of the uptake of ^3 H noradrenalin by the synaptosomes of a rat hypothalamus homogenate; format: biochemical; settings: with respect to the control test
Description: The compounds of the formula (I) are capable of modifying the accumulation of noradrenalin and particularly to inhibit the uptake of ^3 H noradrenalin by the synaptosomes of a rat hypothalamus homogenate prepared according to Banerjee, Snyder and Mechoulam (J. Pharmacol. Exp. Ther., 194, 1, 74, 1975). This inhibition of the uptake of ^3 H noradrenaline is a known property of various compounds having an activity on the central nervous system and/or on the sympathetic nervous system, particularly a hypotensive effect (J. Glowinski and J. Axelrod, Effects of Drugs on the Disposition of ^3 H norepinephrine in the Rat Brain, Pharmacological Reviews, Vol. 18, n°1, Part I, 1966).
They are expressed as percent inhibition of the uptake with respect to the control test.

[2] = acute toxicity investigation in mice; settings: mouse, in vivo
Doca rats = assay: action on the control of blood pressure in Doca rats; format: in vivo, rat; settings: oral, 2 × 3 mg/kg
Procedure: (§1) The above results are confirmed by the results of an investigation of the action on the control of blood pressure. On oral administration of a dosage of 2 × 3 mg/kg of compound to Doca rats (Technique according to Green and co-workers, Am. J. Physiol, 1952, 170, p.94) and to Grollman rats (Techniques according to Grollman, Proc. Soc. Exp. Biol. Med., 1944, 57, p.102), the precent decrease of the systolic blood pressure with respect to its original value is noted.

Grollman rats = assay: action on the control of blood pressure in Grollman rats; format: in vivo, rat; settings: oral, 2 × 3 mg/kg
Procedure: as §1

[3] = 5 × 10^-5 M ultimate concentration
[4] = 5 × 10^-6 M ultimate concentration
[5] = iv, read-out: LD50 (mg/kg) i.v.
[6] = po, read-out: LD50 (mg/kg) p.o.
[7] = 5 × 10^-4 M ultimate concentration

Structure (SMILES) | inhibition % of the uptake of ^3 H noradrenalin [1, 3] [%] | inhibition % of the uptake of ^3 H noradrenalin [1, 4] [%] | LD50 [2, 5] [mg/kg] | LD50 [2, 6] [mg/kg] | percent decrease of the systolic blood pressure with respect to its original value (Doca rats) [%] | percent decrease of the systolic blood pressure with respect to its original value (Grollman rats) [%] | inhibition % of the uptake of ^3 H noradrenalin [1, 7] [%]
Cc1conc1NC(=N)NC(=N)N [Example 8] | 55 | 36 | 70 | 300 | 15 | 15 | –
CCc1cc(NC(=N)NC(=N)N)no1 [Example 4] | – | – | 45 | 500 | – | – | 52.7
CNC(=N)NC(=N)Nc1cc(C)on1 [Example 2, 1-methyl-5-(5-methyl-isoxazol-3-yl)biguanide] | – | – | – | 900 | – | – | 53.6
Cc1cc(NC(=N)NC(=N)N2CCOCC2)no1 [Example 20] | – | – | 100 | 750 | – | – | 46.6
Cc1onc(N(C)C(=N)NC(=N)N)c1C [Example 10] | – | – | 100 | > 500 | – | – | 19.5
Cc1cc(NC(=N)NC(=N)N(C)C)no1 [Example 3] | – | – | 140 | 800 | – | 10 | 47.9
Cc1cc(NC(=N)NC(=N)N2CCN(C)CC2)no1 [Example 19] | – | – | 100 | 2000 | – | 20 | 53.8
CCCCNC(=N)NC(=N)Nc1cc(C)on1 [Example 13] | – | – | 35 | 250 | – | – | 63.1
CCc1conc1NC(=N)NC(=N)N [Example 14] | 61.8 | 46.5 | – | 500 | – | – | –
Cc1noc(NC(=N)NC(=N)N(C)C)c1C [Example 22] | – | – | – | 700 | – | – | 38.1
CC(C)c1cc(NC(=N)NC(=N)N)no1 [Example 6] | 54.6 | – | – | 200 | – | – | –
Cc1cc(NC(=N)NC(=N)N)no1 [Example 1, (5-methyl-isoxazol-3-yl)biguanide hydrochloride] | – | – | 115 | 700 | 25 | 20 | –
CCCCc1cc(NC(=N)NC(=N)N)no1 [Example 5] | – | – | – | 600 | 10 | – | 69.5
Cc1conc1NC(=N)NC(=N)N(C)C [Example 11] | – | – | 40 | 300 | 15 | – | 60.1
N=C(N)NC(=N)Nc1ccon1 [Example 9] | – | – | > 150 | > 1000 | – | – | 68.6
CCN(C(=N)NC(=N)N)c1cc(C)on1 [Example 16] | – | – | – | > 750 | – | – | 37.9
Cc1cc(N(C)C(=N)NC(=N)N)no1 [Example 7] | – | – | – | – | 15 | – | 48.1
